Consider 9 compounds from article PMC11206678, “Peptide-Alkoxyamine Drugs: An Innovative Approach to Fight Schistosomiasis: “Digging Their Graves with Their Forks”” (Pathogens, 2024).

Entries after “also recorded” stand apart in the source; their conditions may differ. Where a name gives a salt, the structure may show the parent alone. Square brackets hold non-standard residues; d marks the D form. Peptide text beside a SMILES is read from it. * marks the point of attachment. Boc = CC(C)(C)OC(=O)*; OBn = c1ccc(CO*)cc1 Where only a bound is given, the exact number is not on record here.

Series [1] has as its system Vero cells. The series is classed as cell-based. The following applies: 48 h. The method, then: A non-cancer line of Vero cells was used to determine the cytotoxicity of the compound against mammalian cells. They were evaluated at a final DMSO concentration of 0.5%. The culture medium was MEM (Dutscher, Bernolsheim, France) supplemented with 10% fetal bovine serum (Fisher Scientific, Illkirch, France), 1X non-essential amino acids (Fisher Scientific, Illkirch, France), 100 U/mL, 100 µg/mL penicillin/streptomycin (Fisher Scientific, Illkirch, France), and 2 mM L-glutamine (Fisher Scientific, Illkirch, France) at 37 °C in a humidified 5% CO2 atmosphere. Vero cells (100 µL of 10^5 cells/mL per well) were plated in 96-well plates for 24 h then treated with 100 µL of compound dilutions (in duplicate) during 48 h. All molecules were tested from 5 nM to 50 µM. Each well was then examined under the microscope to detect any precipitate formation before the supernatant was removed by flicking the plate. A volume of 100 µL of 0.5 mg/mL in MEM from a stock solution at 5 mg/mL of PBS-dissolved MTT (3-(4,5-dimethylthiazol-2-yl)-2,5-diphenyltetrazolium bromide, Sigma Aldrich/Merck, Darmstadt, Germany) was then added to each well [20].
After incubation for 1 h at 37 °C and 5% CO2 the supernatant was removed and 100 µL of DMSO were added. Plates were gently shaken to dissolve formazan crystals resulting from the MTT reduction by living cells and read at 570 nm with the VICTOR Nivo plate reader (Perkin Elmer, Waltham, MA, USA). CC50 values were determined using GraphPad Prism 7 software (San Diego, CA, USA).

The test system of series [2] is Schistosoma mansoni adult worms. The series is described as follows: Viability of Schistosoma mansoni adult worms in vitro. The series is classed as cell-based, Schistosoma mansoni NMRI strain. The following applies: 37 °C; for time to kill all parasites / time to reach the death of half of the population of worms: Table S1, dose at 100 μg/ml, unit not given in Table S1 (h in Table 2); for Activity/toxicity towards schistosomes (in words): adult worms; for Activity/toxicity towards schistosomes (in words) / Time to Kill 50% of Parasites / Time to Kill 100% of Parasites: 100 μg/mL; for Time to Kill 50% of Parasites / Time to Kill 100% of Parasites: adult worms in RPMI 1640/Tween 80/DMSO, observed up to 72 h, duplicate wells. The method, then: Experiments on the viability of Schistosoma mansoni adult worms. In vitro tests were performed on Schistosoma mansoni NMRI strains. This parasite is lab maintained on Biomphalaria glabrata (BRE strain) as intermediate mollusc host and Golden Hamster (Janvier Labs, Le Genest-Saint-Isle, France) as definitive vertebrate host. Methods, for molluscs’ and hamsters’ infection and for parasite recovery, were previously described. Adult worms were recovered by hepatic perfusion technique between 42 and 47 days post hamster exposition to parasite larvae. Worms were carefully collected and disposed in 12-well Falcon® plate containing 2 mL of RPMI 1640 (supplemented with L-glutamine and Hepes 25 mM). The plates containing a minimum of 15 worms by well were then placed in an incubator chamber at 37 °C and 5% CO2. The worms sex ratio was almost balanced in each well. The drug was first dissolved in DMSO (Sigma-Aldrich) to give a 100 mg/mL mother solution. Then the stock solution was complemented with Tween 80 and RPMI to obtain the following final ratio dilution: RPMI 1640/Tween 80/DMSO and 1000/0.95/3.8, v/v/v.
All molecules were tested at a final concentration of 100 µg/mL and 10 µg/mL. A negative control consisted in adding the same RPMI 1640/Tween 80/DMSO solution, but without any drug and a positive control consisted in adding praziquantel. All molecules and control were performed in duplicates of well. The worm viability was checked after 1, 2, 3, 4, 5, 6, 7, 8, 24, 48, and 72 h after adding the molecule.

Series [3] is described as follows: Homolysis kinetics of alkoxyamines by EPR (growth of nitroxide). It is filed as physicochemical. The following applies: mixture of diastereoisomers; for Homolysis rate constant kd: 0.1 mM alkoxyamine, O2 as alkyl radical scavenger; for Activation energy Ea: by Equation (2) from kd and T, A = 2.4 10^14 s^−1. As to the method: Preparation of alkoxyamines and reference samples. All reagents including anhydrous solvents used for the chemical synthesis were purchased from commercially available sources such as Merck, TCI, and Fluorochem, and were used without further purification. All air and/or water-sensitive reactions were carried out under an argon atmosphere with dry solvents using standard syringe-cannula/septa techniques. Routine monitoring of reactions was performed using Merck Silica gel 60 F254, aluminum-supported TLC plates; spots were visualized using UV light and ethanolic acidic para-anisaldehyde solution or ethanolic phosphomolybdic solution, followed by heating. Purifications by means of column chromatography were performed with Silica gel 60 (230–400 mesh). ^1H, ^13C, and ^19F NMR spectra were obtained in CDCl3, MeOD (with residual H2O), D2O, DMSO-d6, or C6D6 solutions on by using Bruker AC400 (400 MHz) and Bruker AC300 (300 MHz) spectrometers. High-resolution mass spectra (HRMS) have been performed using a SYNAPT G2 HDMS (Waters) mass spectrometer equipped with a pneumatically assisted atmospheric pressure ionization (API) source. The sample was ionized in positive electrospray mode under the following conditions: electrospray voltage: 2.8 kV; port voltage: 20 V; Nebulizing gas flow rate (nitrogen): 100 L/h or in negative electrospray mode under the following conditions: electrospray voltage: −2.27 kV; port voltage: −20 V; Nebulizing gas flow rate (nitrogen): 100 L/h. The mass spectra (MS) were obtained with a time-of-flight (TOF) analyzer. The exact mass measurements were carried out in triplicate with external calibration. Homolysis constants were measured by EPR on an EMX Bruker spectrometer from 10^−4 M samples in tertbutyl benzene or in a mixture of H2O-nPrOH (1:1; v:v).
Kinetic experiments. Kinetics of A1–A7 (Scheme 2) for series L and D are performed by monitoring the growth of nitroxide by Electron Paramagnetic Resonance (X-band EMX Bruker machine) in tert-butylbenzene and a water/n-PrOH (for a good solubility of the alkoxyamine) as solvents and using O2 as alkyl radical scavenger to suppress the back reaction (kc in Scheme 2) as already reported. Homolysis rate constants kd are given by Equation (1) ([nitroxide]∞ = [alkoxyamine]0 = 0.1 mM, see Table S1) and the subsequent activation energies Ea given by Equation (2). (1) lnnitroxide∞−nitroxidet/nitroxide∞=−kd·t, (2) Ea=−RTlnkd/A.

Where [4] appears, read: C–ON bond homolysis in t-BuPh, EPR, T (°C): A1L 128.0, A3L 125.0, A5L 130.0, A6L 125, A7L 126.5, A1D 122.5, A3D 119.8, A5D 130.
Setting [5] is: C–ON bond homolysis in water/n-PrOH v/v 1:1, EPR, T (°C): A1L 95.1, A3L 94.5, A4L 94.6, A5L 94.0, A6L 94.8, A7L 94.3, A1D 93.5, A3D 92.6, A4D 95.0, A5D 94.6.

In general, CC50 refers to the concentration that lowers cell viability or growth by half. Turning to `CCc1ccc(NC(=O)[C@@H](Cc2ccccc2)NC(=O)[C@H](NC(=O)[C@@H](Cc2ccccc2)NC(=O)OC(C)(C)C)C(C)C)cc1` [P21D, Tert-butyl ((R)-1-(((R)-1-(((R)-1-((4-ethylphenyl)amino)-1-oxo-3-phenylpropan-2-yl)amino)-3-methyl-1-oxobutan-2-yl)amino)-1-oxo-3-phenylpropan-2-yl)carbamate], the CC50 in series [1] is > 50 µM. In series [2], the “time to kill all parasites” value was found to be 24, the “time to reach the death of half of the population of worms” value (“time to reach the death” below) amounted to 5 and the “Activity/toxicity towards schistosomes (in words)” value was “unexpectedly toxic”.
In the same order, the values of `CC(C)[C@@H](NC(=O)[C@H](N)Cc1ccccc1)C(=O)N[C@H](Cc1ccccc1)C(=O)OCc1ccccc1` [P8D, (R)-1-(((R)-1-(((R)-1-(benzyloxy)-1-oxo-3-phenylpropan-2-yl)amino)-3-methyl-1-oxobutan-2-yl)amino)-1-oxo-3-phenylpropan-2-aminium trifluoroacetate] (H-[dF]-[dV]-[dF]-OBn) are > 50 µM, 1, 1 and “unexpectedly toxic”.
As to `CC(ON1C(C)(C)CCCC1(C)C)c1ccc(NC(=O)[C@@H](Cc2ccccc2)NC(=O)[C@H](NC(=O)[C@@H](Cc2ccccc2)NC(=O)OC(C)(C)C)C(C)C)cc1` (stereo partly drawn) [A3D, tert-butyl ((2R)-1-(((2R)-3-methyl-1-oxo-1-(((2R)-1-oxo-3-phenyl-1-((4-(1-((2,2,6,6-tetramethylpiperidin-1-yl)oxy)ethyl)phenyl)amino)propan-2-yl)amino)butan-2-yl)amino)-1-oxo-3-phenylpropan-2-yl)carbamate], in series [1], the CC50 is > 50 µM. Besides, the “Homolysis rate constant kd” value is on record as 9.6 10^−4 s^−1 in series [3] (setting [4]) and 0.45 10^−4 s^−1 in series [3] (setting [5]). Also, the “Activation energy Ea” value in series [3] (in t-BuPh) amounted to 31.6 kcal/mol; in series [3] (in water/n-PrOH v/v 1:1), 31.31 kcal/mol.
In the case of `CC(C)[C@H](NC(=O)[C@H](Cc1ccccc1)NC(=O)OC(C)(C)C)C(=O)N[C@@H](Cc1ccccc1)C(=O)OCc1ccccc1` [P6L, Benzyl (tert-butoxycarbonyl)-L-phenylalanyl-L-valyl-L-phenylalaninate] (Boc-Phe-Val-Phe-OBn), the CC50 in series [1] is > 50 µM.
With `CC(C)[C@H](NC(=O)[C@H](Cc1ccccc1)NC(=O)CCC(=O)OCc1ccccc1)C(=O)N[C@@H](Cc1ccccc1)C(=O)OCc1ccccc1` [P9L, Benzyl 4-(((S)-1-(((S)-1-(((S)-1-(benzyloxy)-1-oxo-3-phenylpropan-2-yl)amino)-3-methyl-1-oxobutan-2-yl)amino)-1-oxo-3-phenylpropan-2-yl)amino)-4-oxobutanoate], in series [1], the CC50 was > 50 µM. Besides, in series [2], the “Time to Kill 50% of Parasites” value is listed as 3 h, the “Time to Kill 100% of Parasites” value was determined as 5 h, the “time to kill all parasites” value is given as 5 and the “time to reach the death” value was 3. In addition, the “Activity/toxicity towards schistosomes (in words)” value in series [2] is listed as “unexpected toxicity”.
As to `CC(ON1C(C)(C)CCCC1(C)C)c1ccc(NC(=O)[C@H](Cc2ccccc2)NC(=O)[C@@H](NC(=O)[C@H](Cc2ccccc2)NC(=O)OC(C)(C)C)C(C)C)cc1` (stereo partly drawn) [A3L, tert-butyl ((2S)-1-(((2S)-3-methyl-1-oxo-1-(((2S)-1-oxo-3-phenyl-1-((4-(1-((2,2,6,6-tetramethylpiperidin-1-yl)oxy)ethyl)phenyl)amino)propan-2-yl)amino)butan-2-yl)amino)-1-oxo-3-phenylpropan-2-yl)carbamate], the figures for the “Homolysis rate constant kd” value in series [3] (setting [4]) and in series [3] (setting [5]) were 8.4 10^−4 s^−1 and 1.8 10^−4 s^−1, respectively. The figures for the “Activation energy Ea” value in series [3] (in t-BuPh) and in series [3] (in water/n-PrOH v/v 1:1) were 31.79 kcal/mol and 30.78 kcal/mol, respectively. In addition, in series [2], the “Activity/toxicity towards schistosomes (in words)” value was “inactive; also recorded: non-activity”.
`CCc1ccc(NC(=O)[C@@H](Cc2ccccc2)NC(=O)[C@H](NC(=O)[C@H](N)Cc2ccccc2)C(C)C)cc1` [P22D, (R)-1-(((R)-1-(((R)-1-((4-ethylphenyl)amino)-1-oxo-3-phenylpropan-2-yl)amino)-3-methyl-1-oxobutan-2-yl)amino)-1-oxo-3-phenylpropan-2-aminium trifluoroacetate] returned a CC50 in series [1] of 11 µM. In series [2], the “time to kill all parasites” value worked out at 24, the “time to reach the death” value was determined as 4 and the “Activity/toxicity towards schistosomes (in words)” value is “unexpectedly toxic”.
Regarding `CC(C)[C@H](NC(=O)[C@@H](N)Cc1ccccc1)C(=O)N[C@@H](Cc1ccccc1)C(=O)OCc1ccccc1` [P8L, (S)-1-(((S)-1-(((S)-1-(benzyloxy)-1-oxo-3-phenylpropan-2-yl)amino)-3-methyl-1-oxobutan-2-yl)amino)-1-oxo-3-phenylpropan-2-aminium trifluoroacetate] (H-Phe-Val-Phe-OBn), in series [1], the CC50 is > 50 µM. In addition, in series [2], the “Time to Kill 50% of Parasites” value is recorded as 7 h, the “Time to Kill 100% of Parasites” value turned out to be 24 h, the “time to kill all parasites” value is 24 and the “time to reach the death” value worked out at 7. Also, the “Activity/toxicity towards schistosomes (in words)” value in series [2] is “unexpected toxicity”.
With `CC(C)[C@@H](NC(=O)[C@@H](Cc1ccccc1)NC(=O)OC(C)(C)C)C(=O)N[C@H](Cc1ccccc1)C(=O)OCc1ccccc1` [P6D, Benzyl (tert-butoxycarbonyl)-D-phenylalanyl-D-valyl-D-phenylalaninate] (Boc-[dF]-[dV]-[dF]-OBn), the CC50 in series [1] was 3.2 µM. Further, in series [2], the “time to kill all parasites” value is recorded as 24, the “time to reach the death” value worked out at 4 and the “Activity/toxicity towards schistosomes (in words)” value is reported as “unexpectedly toxic”.
